Patent publication US10398689B2, “Benzopiperidine derivative, preparation method thereof and medical use thereof” (Jiangsu Hengrui Medicine Co., Ltd., priority 2015, dated 2019)

Key:
ER (estrogen receptor) = target: T1, ER (estrogen receptor) (Homo sapiens, UniProt P03372); assay: Inhibition of the binding of estrogen (E) to estrogen receptor (ER), MCF-7/ERE-luciferase reporter cells; type: cell-based; details: MCF-7/ERE-luciferase cells, 0.1 nM estradiol, 24 hours, chemiluminescence; read-out: IC50 value of inhibition effect on the binding of E to ER
T1 construct: MCF-7/ERE-luciferase monoclonal cells were selected by transfection of MCF-7; host or cells: MCF-7/ERE-luciferase (only the ERE-luciferase reporter was transfected)
T1 sequence (P03372 1-595): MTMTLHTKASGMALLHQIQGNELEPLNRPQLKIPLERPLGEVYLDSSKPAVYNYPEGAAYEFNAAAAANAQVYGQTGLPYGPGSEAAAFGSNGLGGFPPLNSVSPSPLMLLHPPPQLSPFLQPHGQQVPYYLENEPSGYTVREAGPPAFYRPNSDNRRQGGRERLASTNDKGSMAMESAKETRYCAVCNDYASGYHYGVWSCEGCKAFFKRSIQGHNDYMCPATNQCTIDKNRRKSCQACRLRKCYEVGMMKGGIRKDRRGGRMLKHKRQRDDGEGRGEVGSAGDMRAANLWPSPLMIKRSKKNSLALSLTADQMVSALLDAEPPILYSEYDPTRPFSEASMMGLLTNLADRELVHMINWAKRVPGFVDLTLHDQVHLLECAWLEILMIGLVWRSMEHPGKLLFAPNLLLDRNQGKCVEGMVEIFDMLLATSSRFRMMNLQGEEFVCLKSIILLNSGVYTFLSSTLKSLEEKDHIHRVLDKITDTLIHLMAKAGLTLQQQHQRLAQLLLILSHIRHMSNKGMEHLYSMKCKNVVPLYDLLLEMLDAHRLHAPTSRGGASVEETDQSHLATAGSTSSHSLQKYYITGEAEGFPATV
Description: The compounds of the present invention have an inhibition effect on the binding of E (estrogen) to ER (estrogen receptor), thereby blocking the binding of a complex of E and ER complex to ERE (estrogen responsive element), and subsequently blocking the expression of downstream luciferase protein.
The inhibition effect of the compounds on the binding of E to ER in vitro was tested by the following method.
The object of this experiment was to determine the inhibition effect of the compounds on the binding of E to ER, and the in vitro activity of the compounds was evaluated according to the IC50 values.
ERE was cloned into the upstream of the luciferase gene, and MCF-7/ERE-luciferase monoclonal cells were selected by transfection of MCF-7 (Cell Bank of Chinese Academy of Sciences typical culture preservation Committee, TCHu74). MCF-7/ERE-luciferase cells were inoculated into the MEM medium (hyclone, SH30024.01B) containing 10% charcoal stripped FBS (Moregate, FBSF), 1% sodium pyruvate (Sigma, S8636), 1% nonessential amino acids (Sigma, M7145) and 500 μg/ml G418 in a 96-well plates with a density of 30,000 cells/well, and the cells were incubated under the conditions of 37° C., and 5% CO2. The drug was prepared as a 20 mM stock solution that was later diluted with 100% DMSO in 10 fold concentration gradient, and then diluted 20-fold with the medium DMEM. After incubation for 24 hours, the medium was removed, then 0.1 nM estradiol (Sigma, E2758) and 10 μl of the drug diluted with the medium were added to each well, and the control group was added with DMSO. The plate was gently shaken and incubated in a incubator at 37° C., 5% CO2. After 24 hours, the cell culture medium was discarded, Then, 50 μl of the prepared luciferase substrate (Promega, E6110) was added to each well, and the plate was placed in the dark at room temperature for 10-15 minutes, then the chemiluminescence signal value was determined.
The inhibition effect of the compounds of the present invention on the binding of E to ER was tested by the experiment described above. The values of the chemiluminescence signal vs the logarithmic concentrations of the compounds were plotted using Graphpad Prism, and the measured IC50 values are shown in Table 1.

MCF7 cells = assay: Inhibition of the proliferation of MCF7 cells (Cell Titer-Glo); type: cell-based; details: Homo sapiens, MCF-7 cells, 72 hours, read-out: IC50 value of inhibition effect on the proliferation of MCF7 cells
Description: The object of this experiment was to determine the inhibition effect of the compounds on the proliferation activity of MCF7 cells, and the in vitro activity of the compounds was evaluated according to the IC50 values.
MCF-7 cells (Cell Bank of Chinese Academy of Sciences typical culture preservation Committee, TChu 74) were inoculated into the MEM medium (Hyclone, SH30024.01B) containing 10% FBS (Gibco, 10099-141), 1% sodium pyruvate (Sigma, S8636), and 1% nonessential amino acids (Sigma, M7145) in a 96-well plate with a density of 40,000 cells/well, and the cells were incubated under the conditions of 37° C., and 5% CO2. The compound was prepared as a 20 mM stock solution that was later diluted to 1000× final concentration with 100% DMSO, and then diluted with 20-fold medium containing 2% FBS. After incubation for 24 hours, the medium was removed and 90 μl of the medium containing 2% FBS and 10 μl of the drug were added to each well, 10 […] of DMSO was added to the control group, and the blank group contained only 100 μl medium containing 2% FBS. The plate was gently shaken and incubated in a incubator at 37° C., 5% CO2. After 72 hours later, 50 μl of mixed Cell Titer-Glo (Promega, G7571) was added to each well. The plate was shaken until the ingredients were mixed uniformly, and placed at room temperature for 10 minutes, then the chemiluminescence signal value was determined. The inhibition effect of the compound AZD9496 at 100 nM on the proliferation of MCF-7 cells was set to 100%, the maximum inhibition rate of other compounds=(chemiluminescence signal valuenegative control−chemiluminescence signal valuecompound 100 nm)/(chemiluminescence signal valuenegative control−chemiluminescence signal valueAZD9496 100 nm)×100%, and the negative control was a well with 0.5% DMSO.
The values of the chemiluminescence signals vs the logarithmic concentrations of the compounds were plotted using Graghpad Prism to obtain the IC50 values.

[1] = Pharmacokinetics assay in BALB/C nude mice after intragastrical administration; type: in vivo; details: female, mouse, po, 3 mg/kg, plasma; for Vd/F: read-out: Apparent Distribution Volume Vz/F; for AUC: read-out: Area Under Curve AUC; for CL/F: read-out: Clearance CL/F; for half-life: read-out: Half-Life t1/2 (converted); for MRT: read-out: Mean Residence Time MRT; for Cmax: read-out: Plasma Conc. Cmax
Description: BALB/C nude mice were used as test animals. The drug concentration in plasma at different time points was determined by LC/MS/MS after intragastrical administration of the compounds of Examples 1, 7, 8, 10, 11, 14, 16, 39 and 42 to BALB/C nude mice. The pharmacokinetic behavior of the compounds of the compounds of the present invention was studied and evaluated in BALB/C nude mice.
Eighty-one (81) female BALB/C nude mice, were equally divided into 9 groups, which were purchased from SINO-BRITSH SIPPR/BK LAB. ANIMAL LTD., CO, with Certificate No.: SOCK (Shanghai) 2008-0016.
The appropriate amount of each test compound was weighed, and successively added with 9% PEG400+0.5% tween 80+0.5% PVP+90% aqueous solution of 0.5% CMC.
After an overnight fasting, 81 female BALB/C nude mice were equally divided into 9 groups; and administered the test compounds intragastrically at an administration volume of 0.2 mL/10 g.
81 female Balb/C nude mice were administered the test compounds intragastrically after an overnight fasting. Blood (0.1 mL) was taken (3 animals at each time point) at 0.5, 1.0, 2.0, 4.0, 6.0, 8.0, 11.0, and 24.0 h after administration. The samples were stored in heparinized test tubes, and centrifuged for 10 minutes at 3,500 rpm to separate the blood plasma. The plasma samples were stored at −20° C.
The concentration of the prototype drug in the plasma and in the solution to be administered was determined by liquid chromatography tandem mass spectrometry (LC/MS MS).

Row | IC50 (ER (estrogen receptor)) [nM] | IC50 (MCF7 cells) [nM] | Vd/F [1] [L/kg] | AUC [1] [µg·h/mL] | CL/F [1] [L/h/kg] | half-life [1] [h] | MRT [1] [h] | Cmax [1] [µg/mL] | Structure (SMILES)
1 | 1.07 | 0.3 | 3.18 | 6.28 | 0.478 | 4.61 | 7.08 | 1.07 | CC1Cc2cc(-c3cnn(C)c3)ccc2C(c2ccc(/C=C/C(=O)O)cc2)N1c1ccc(C2CC2)cc1 [Example 10, (E)-3-(4-((1R,3R/1S,3S)-2-(4-Cyclopropylphenyl)-3-methyl-6-(1-methyl-1H-pyrazol-4-yl)-1,2,3,4-tetrahydroisoquinolin-1-yl)phenyl)acrylic acid]
2 | 2.15 | 0.93 | 1.43 | 9.12 | 0.329 | 3.01 | 4.87 | 1.56 | CC(C)c1ccc(N2C(C)Cc3cc(-c4cnn(C)c4)ccc3C2c2ccc(/C=C/C(=O)O)cc2)cc1 [Example 16, (E)-3-(4-((1R,3R/1S,3S)-2-(4-Isopropylphenyl)-3-methyl-6-(1-methyl-1H-pyrazol-4-yl)-1,2,3,4-tetrahydroisoquinolin-1-yl)phenyl)acrylic acid]
3 | 5.63 | 2.8 | – | – | – | – | – | – | CC1Cc2cc(-c3cn[nH]c3)ccc2C(c2ccc(/C=C/C(=O)O)cc2)N1c1ccc(C2CC2)cc1 [Example 36, (E)-3-(4-((1R,3R/1S,3S)-2-(4-cyclopropylphenyl)-3-methyl-6-(1H-pyrazol-4-yl)-1,2,3,4-tetrahydroisoquinolin-1-yl)phenyl)acrylic acid]
4 | 0.84 | 1.74 | – | – | – | – | – | – | Cc1ccc(N2C(C)Cc3cc(-c4cnn(C)c4)ccc3C2c2ccc(/C=C/C(=O)O)cc2)c(C)c1 [Example 37, (E)-3-(4-((1R,3R/1S,3S)-2-(2,4-Dimethylphenyl)-3-methyl-6-(1-methyl-1H-pyrazol-4-yl)-1,2,3,4-tetrahydroisoquinolin-1-yl)phenyl)acrylic acid]
5 | 0.18 | 0.38 | – | – | – | – | – | – | CCn1cc(-c2ccc3c(c2)C[C@@H](C)N(c2ccc(C(C)C)cc2)[C@@H]3c2c(F)cc(/C=C/C(=O)O)cc2F)cn1 [Example 38, (E)-3-(4-((1S,3R)-6-(1-Ethyl-1H-pyrazol-4-yl)-2-(4-isopropylphenyl)-3-methyl-1,2,3,4-tetrahydroisoquinolin-1-yl)-3,5-difluorophenyl)acrylic acid]
6 | 0.17 | 0.42 | 1.53 | 10.2 | 0.295 | 3.6 | 7.02 | 1.76 | CC(C)c1ccc(N2[C@H](c3c(F)cc(/C=C/C(=O)O)cc3F)c3ccc(-c4cnn(C)c4)cc3C[C@H]2C)cc1 [Example 39, (E)-3-(3,5-Difluoro-4-((1S,3R)-2-(4-isopropylphenyl)-3-methyl-6-(1-methyl-1H-pyrazol-4-yl)-1,2,3,4-tetrahydroisoquinolin-1-yl)phenyl)acrylic acid]
7 | 5.39 | 4.9 | – | – | – | – | – | – | CC1Cc2cc(-c3cnn(C)c3)ccc2C(c2ccc(/C=C/C(=O)O)cc2)N1c1ccc(CC2CC2)cc1 [Example 47, (E)-3-(4-((1R,3R/1S,3S)-2-(4-(Cyclopropylmethyl)phenyl)-3-methyl-6-(1-methyl-1H-pyrazol-4-yl)-1,2,3,4-tetrahydroisoquinolin-1-yl)phenyl)acrylic acid]
8 | 0.71 | 0.59 | – | – | – | – | – | – | CC(C)c1ccc(N2C(C)Cc3cc(-c4cn[nH]c4)ccc3C2c2ccc(/C=C/C(=O)O)cc2)cc1 [Example 48, (E)-3-(4-((1R,3R/1S,3S)-2-(4-Isopropylphenyl)-3-methyl-6-(1H-pyrazol-4-yl)-1,2,3,4-tetrahydroisoquinolin-1-yl)phenyl)acrylic acid]
9 | 3.46 | 1.04 | – | – | – | – | – | – | CC(C)c1ccc(N2C(C)Cc3cc(-c4cnn(C(F)F)c4)ccc3C2c2ccc(/C=C/C(=O)O)cc2)cc1 (stereo not drawn) [Example 49]
